Measurements published in ChEMBL document CHEMBL1201862, “PubChem BioAssay data set” (2004).
Activity calls are given as the source filed them.

Assays:
Phospholipase A2 = Phospholipase A2 (Homo sapiens, UniProt P04054); assay type: functional;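 note: confirmatory dose-response counterscreen on phospholipase A2, testing hits that came from an ultra-high-throughput screen for ATG4B inhibitors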
[1] = biological target: T1, Nucleotide-binding oligomerization domain-containing protein 2 (Homo sapiens, UniProt Q9HC29); test: NOD2 signaling inhibitors, cell-based, luminescence, uHTS, HEK293 (AID 1566); assay type: functional
[2] = HEp-2 cell cytotoxicity, dose response, cytotoxicity control for RSV inhibitor project, HTS (AID 2410); assay type: functional; conditions: human respiratory syncytial virus
HEK293 [3] = test: cells; assay type: functional, cell-based; conditions: Homo sapiens
HEK293 [4] = test: NOD1 signaling inhibitors, primary screen, cell-based, luminescence, uHTS (AID 1578); assay type: functional; conditions: Homo sapiens
HEK293 [5] = test: cells; conditions: Homo sapiens
Tumor necrosis factor = Tumor necrosis factor (Homo sapiens, UniProt P01375); test: TNFa-triggered NF-kB activation inhibitors, SAR follow-up, cell-based, revised (AID 2337); assay type: functional
Cysteine protease ATG4B = biological target: T2, Cysteine protease ATG4B (Homo sapiens, UniProt Q9Y4P1); assay type: functional;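 note: Fluorescence-based dose-response confirmation assay measuring inhibition of ATG4B activity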
T2 sequence (Q9Y4P1 whole entry): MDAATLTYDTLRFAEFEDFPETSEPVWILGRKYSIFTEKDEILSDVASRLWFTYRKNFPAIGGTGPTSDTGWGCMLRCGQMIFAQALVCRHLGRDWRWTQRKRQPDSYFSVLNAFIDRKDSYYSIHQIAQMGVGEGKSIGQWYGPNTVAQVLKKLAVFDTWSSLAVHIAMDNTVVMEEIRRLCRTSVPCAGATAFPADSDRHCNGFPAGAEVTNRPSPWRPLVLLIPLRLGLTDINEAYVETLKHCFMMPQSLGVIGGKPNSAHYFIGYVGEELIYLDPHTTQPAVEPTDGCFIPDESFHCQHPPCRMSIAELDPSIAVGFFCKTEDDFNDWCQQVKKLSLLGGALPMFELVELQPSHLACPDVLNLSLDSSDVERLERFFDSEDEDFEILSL

[6] = biological target: T3, Nucleotide-binding oligomerization domain-containing protein 1 (Homo sapiens, UniProt Q9Y239); test: NOD1 signaling inhibitors, SAR follow-up, revised (AID 2333); assay type: functional
T3 sequence (Q9Y239 whole entry): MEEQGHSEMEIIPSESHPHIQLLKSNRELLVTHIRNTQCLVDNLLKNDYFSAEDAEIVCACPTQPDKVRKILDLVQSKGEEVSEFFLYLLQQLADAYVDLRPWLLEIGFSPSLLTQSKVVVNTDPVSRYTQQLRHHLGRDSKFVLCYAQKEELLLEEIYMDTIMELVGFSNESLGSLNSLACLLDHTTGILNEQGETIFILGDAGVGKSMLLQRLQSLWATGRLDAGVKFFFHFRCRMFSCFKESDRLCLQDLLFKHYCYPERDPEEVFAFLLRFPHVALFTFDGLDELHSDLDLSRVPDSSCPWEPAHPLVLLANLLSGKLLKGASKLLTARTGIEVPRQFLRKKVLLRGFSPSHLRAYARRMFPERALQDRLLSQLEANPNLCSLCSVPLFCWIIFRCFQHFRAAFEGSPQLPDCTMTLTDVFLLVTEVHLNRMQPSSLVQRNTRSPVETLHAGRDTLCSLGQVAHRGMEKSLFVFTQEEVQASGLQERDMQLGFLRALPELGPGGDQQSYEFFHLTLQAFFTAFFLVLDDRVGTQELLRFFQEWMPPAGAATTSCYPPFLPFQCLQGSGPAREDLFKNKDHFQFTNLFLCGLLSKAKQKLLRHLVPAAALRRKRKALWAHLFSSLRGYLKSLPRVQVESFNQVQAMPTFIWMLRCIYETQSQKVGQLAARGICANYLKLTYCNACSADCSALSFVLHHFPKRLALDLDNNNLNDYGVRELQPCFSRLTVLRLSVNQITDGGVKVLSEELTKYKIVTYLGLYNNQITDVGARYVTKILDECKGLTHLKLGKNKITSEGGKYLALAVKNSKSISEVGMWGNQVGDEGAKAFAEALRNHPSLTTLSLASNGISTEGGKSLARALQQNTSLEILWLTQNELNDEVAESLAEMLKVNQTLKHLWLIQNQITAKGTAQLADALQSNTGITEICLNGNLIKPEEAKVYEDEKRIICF

HEK293 [7] = test: NOD2 signaling inhibitors in MDP-stimulated cells, cell-based, uHTS, luminescence (AID 2001); assay type: functional; conditions: Homo sapiens
HEK293 [8] = test: cells; assay type: functional, cell-based; conditions: Homo sapiens; remark: listed apart in the source
HEK293 [9] = test: cells; assay type: functional, cell-based; conditions: Homo sapiens; remark: listed apart in the source
[10] = biological target: T1, Nucleotide-binding oligomerization domain-containing protein 2; test: PubChem AID 2334; assay type: functional
Coagulation factor XII = biological target: T4, Coagulation factor XII (Homo sapiens, UniProt P00748); test: FXIIa inhibitor potency, concentration-response, biochemical (AID 716); assay type: functional
T4 sequence (P00748 whole entry): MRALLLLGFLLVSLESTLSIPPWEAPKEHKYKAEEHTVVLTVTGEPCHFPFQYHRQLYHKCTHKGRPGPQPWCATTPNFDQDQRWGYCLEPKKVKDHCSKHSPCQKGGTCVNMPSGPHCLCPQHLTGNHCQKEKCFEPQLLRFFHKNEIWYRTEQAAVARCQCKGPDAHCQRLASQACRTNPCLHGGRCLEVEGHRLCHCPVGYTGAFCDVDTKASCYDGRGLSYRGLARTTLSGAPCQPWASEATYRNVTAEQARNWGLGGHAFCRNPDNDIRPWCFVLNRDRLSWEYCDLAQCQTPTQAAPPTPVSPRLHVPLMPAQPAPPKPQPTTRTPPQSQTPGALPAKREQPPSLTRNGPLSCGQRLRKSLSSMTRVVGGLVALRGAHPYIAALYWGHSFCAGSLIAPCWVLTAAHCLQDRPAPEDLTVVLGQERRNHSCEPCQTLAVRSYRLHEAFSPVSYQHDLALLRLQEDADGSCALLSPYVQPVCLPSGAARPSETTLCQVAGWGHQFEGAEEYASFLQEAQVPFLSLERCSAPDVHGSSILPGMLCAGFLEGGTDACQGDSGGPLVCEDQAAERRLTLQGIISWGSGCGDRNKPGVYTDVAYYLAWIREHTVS

[11] = insulin promoter down-regulators in MIN6 cells, imaging, high-content screening, mouse beta cells (AID 1628); assay type: functional
[12] = cytotoxicity in MIN6 insulinoma cells, dose response, cytotoxicity control, cell-based, mouse insulinoma (AID 2122); assay type: functional;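 note: confirmatory high-throughput counterscreen run to flag cytotoxic compounds; mouse MIN-6 beta cells carrying an insulin promoter eGFP reporter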
[13] = Vero E6 cell cytotoxicity, dose response, cytotoxicity control for non-replicating M. tuberculosis project, secondary assay (AID 492998); assay type: functional, VeroE6; conditions: Vero C1008
[14] = HepG2 cell cytotoxicity, dose response, cytotoxicity control for non-replicating M. tuberculosis project (AID 489018); assay type: functional; conditions: Mycobacterium tuberculosis
[15] = growth suppression of beta-catenin-knockout colon cells, dose response, cell-based, HCT116, human colon tumor (AID 1045); assay type: functional;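 note: HCT116 colon tumor cells with beta catenin knocked out; cells exposed to compound for 60 hours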
[16] = THP-1 cell cytotoxicity, dose response, cytotoxicity control for non-replicating M. tuberculosis project (AID 489025); assay type: functional
cells = assay type: functional
[17] = growth suppression of PTEN-null colon cells, dose response, cell-based, HCT116 PTEN knockout (AID 1047); assay type: functional;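 note: HCT116 colon tumor cells with PTEN knocked out; cells exposed to compound for 60 hours before readout; potency for loss of cell viability measured by luminescence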

T1 sequence (Q9HC29 whole entry, the tested form may be a part): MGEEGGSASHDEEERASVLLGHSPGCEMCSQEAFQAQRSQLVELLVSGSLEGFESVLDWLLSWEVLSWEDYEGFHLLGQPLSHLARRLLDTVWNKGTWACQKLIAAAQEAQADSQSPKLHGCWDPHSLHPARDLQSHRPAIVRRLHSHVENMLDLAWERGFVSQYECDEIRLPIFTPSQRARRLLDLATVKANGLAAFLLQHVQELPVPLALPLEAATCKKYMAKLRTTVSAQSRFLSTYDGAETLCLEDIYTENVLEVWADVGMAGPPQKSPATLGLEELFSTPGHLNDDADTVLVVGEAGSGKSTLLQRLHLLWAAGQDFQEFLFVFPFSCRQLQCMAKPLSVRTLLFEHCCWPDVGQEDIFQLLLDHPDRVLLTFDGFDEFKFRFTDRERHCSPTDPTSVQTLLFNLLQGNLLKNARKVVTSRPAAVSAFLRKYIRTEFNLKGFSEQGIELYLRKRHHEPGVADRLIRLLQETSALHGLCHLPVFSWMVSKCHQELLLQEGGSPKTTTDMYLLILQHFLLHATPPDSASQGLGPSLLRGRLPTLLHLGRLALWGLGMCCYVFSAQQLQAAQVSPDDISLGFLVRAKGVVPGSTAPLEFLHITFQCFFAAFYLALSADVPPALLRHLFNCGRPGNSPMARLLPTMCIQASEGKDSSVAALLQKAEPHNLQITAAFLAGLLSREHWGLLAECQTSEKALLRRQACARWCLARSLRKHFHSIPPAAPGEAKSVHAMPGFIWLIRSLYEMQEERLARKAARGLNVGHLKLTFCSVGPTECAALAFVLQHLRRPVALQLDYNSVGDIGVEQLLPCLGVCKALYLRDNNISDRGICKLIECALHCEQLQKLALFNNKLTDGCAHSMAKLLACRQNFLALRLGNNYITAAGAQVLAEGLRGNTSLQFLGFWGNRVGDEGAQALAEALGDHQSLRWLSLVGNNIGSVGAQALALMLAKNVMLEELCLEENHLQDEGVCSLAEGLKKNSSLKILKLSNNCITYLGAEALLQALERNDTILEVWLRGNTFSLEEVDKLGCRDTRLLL
Sequence of Phospholipase A2 (P04054 whole entry, the tested form may be a part): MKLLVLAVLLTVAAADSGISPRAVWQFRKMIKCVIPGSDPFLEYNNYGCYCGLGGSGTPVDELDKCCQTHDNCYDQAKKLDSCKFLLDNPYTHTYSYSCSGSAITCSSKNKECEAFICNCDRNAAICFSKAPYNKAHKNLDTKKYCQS
Sequence of Tumor necrosis factor (P01375 whole entry): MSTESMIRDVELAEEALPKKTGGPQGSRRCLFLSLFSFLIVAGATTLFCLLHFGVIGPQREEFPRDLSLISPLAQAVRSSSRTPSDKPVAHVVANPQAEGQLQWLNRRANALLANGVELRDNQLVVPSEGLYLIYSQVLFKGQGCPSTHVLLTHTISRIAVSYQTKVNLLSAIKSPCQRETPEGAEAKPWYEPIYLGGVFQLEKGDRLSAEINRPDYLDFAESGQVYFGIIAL

O=C(CSc1nc2ccccc2c(=O)n1Cc1ccccc1)Nc1ccc(Br)cc1C(=O)O
IC50 (Phospholipase A2): 12.1 µM (active)
EC50 [1]: 7.92 µM (active)
CC50 [2]: 11.1 µM (active)
IC50 (HEK293 [3]): > 20 µM (inactive)
EC50 (HEK293 [4]): 6.11 µM (active)
IC50 (HEK293 [5]): > 20 µM (inactive)
IC50 (Tumor necrosis factor): 5.7 µM (active)
IC50 (Cysteine protease ATG4B): 13.9 µM (active)
IC50 [6]: 5.99 µM (active)
IC50 (HEK293 [7]): 10.2 µM (inactive)
IC50 (HEK293 [8]): > 20 µM (inactive)
IC50 (HEK293 [9]): > 20 µM (inactive)
IC50 [10]: 7.04 µM (active)

CC(=O)Nc1nc(=O)c2ccccc2s1
IC50 (Coagulation factor XII): > 50 µM (inactive)

COc1cccc(CNCCc2c[nH]c3ccccc23)c1OCc1ccc(F)cc1
IC50 [11]: 2.56 µM (active)
IC50 [12]: 3.37 µM (active)
CC50 [13]: 13.4 µM (active)
CC50 [14]: 9.79 µM (active)
EC50 [15]: 6.39 µM (active)
CC50 [16]: 15.6 µM (active)
IC50 (cells): 16.4 µM (active)
EC50 [17]: 5.74 µM (active)
